Results as given in patent publication US20150344457A1, “METHODS OF INHIBITING PRMT5” (EPIZYME, INC., priority 2012, published 2015).

Biological target: T1, PRMT5/MEP50 (Homo sapiens, UniProt O14744)
T1 construct: Expressed full-length human Flag-PRMT5/6His-MeP50 protein complex was purified; made in house; host or cells: Spodoptera frugiperda (SF9) insect cells, baculovirus (pDEST8)
Experiment: PRMT5 Biochemical Assay (PRMT5/MEP50 enzyme assay on peptide substrate, 3H-SAM Flashplate)
Conditions: Table D-2; read-out: Biochemical IC50

T1 sequence (O14744 with tags, fused parts or gaps): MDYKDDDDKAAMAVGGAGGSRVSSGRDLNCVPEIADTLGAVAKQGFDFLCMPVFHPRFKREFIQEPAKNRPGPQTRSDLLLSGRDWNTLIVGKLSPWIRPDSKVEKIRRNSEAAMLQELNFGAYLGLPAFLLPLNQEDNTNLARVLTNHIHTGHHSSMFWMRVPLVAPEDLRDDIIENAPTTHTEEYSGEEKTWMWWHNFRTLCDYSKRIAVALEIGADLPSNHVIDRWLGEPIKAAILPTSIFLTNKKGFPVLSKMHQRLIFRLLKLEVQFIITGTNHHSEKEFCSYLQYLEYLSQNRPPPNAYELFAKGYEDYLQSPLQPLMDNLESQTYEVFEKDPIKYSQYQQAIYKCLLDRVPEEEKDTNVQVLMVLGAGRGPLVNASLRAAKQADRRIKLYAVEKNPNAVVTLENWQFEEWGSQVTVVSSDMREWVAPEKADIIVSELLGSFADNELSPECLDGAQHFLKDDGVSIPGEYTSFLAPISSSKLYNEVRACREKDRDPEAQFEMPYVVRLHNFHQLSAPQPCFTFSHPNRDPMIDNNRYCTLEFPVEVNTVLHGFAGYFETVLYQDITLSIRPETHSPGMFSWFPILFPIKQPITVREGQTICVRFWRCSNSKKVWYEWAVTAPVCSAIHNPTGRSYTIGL
T1 sequence (Q9BQA1 with tags, fused parts or gaps partner limits assumed): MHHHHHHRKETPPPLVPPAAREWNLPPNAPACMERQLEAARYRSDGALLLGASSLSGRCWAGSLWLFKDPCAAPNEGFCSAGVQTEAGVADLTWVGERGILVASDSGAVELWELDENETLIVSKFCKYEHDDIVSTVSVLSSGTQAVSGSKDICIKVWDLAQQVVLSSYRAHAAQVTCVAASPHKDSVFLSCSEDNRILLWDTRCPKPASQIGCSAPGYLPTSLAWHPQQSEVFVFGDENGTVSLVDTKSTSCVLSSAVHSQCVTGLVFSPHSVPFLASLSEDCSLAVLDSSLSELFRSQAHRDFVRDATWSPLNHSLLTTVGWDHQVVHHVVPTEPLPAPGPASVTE

IC50 [nM] | Compound
101 to 1000 | O=C(c1ccc(Cn2nccc2-c2ccc(OCC(O)CN3CCc4ccccc4C3)cc2)cc1)N1CCCC1 (centres unmarked) [Compound D31]
101 to 1000 | OC(CNc1cccc(CNC2CCCC2)c1)CN1CCc2ccccc2C1 (centres unmarked) [Compound D39]
101 to 1000 | OC(COc1cccc(-c2ccccc2)c1)CN1CCc2ccccc2C1 (centres unmarked) [Compound D43]
< 100 | OC(COc1ccc(C2CCCNC2)cc1)CN1CCc2ccccc2C1 (centres unmarked) [Compound D47]
101 to 1000 | OC(COc1cccc(-c2ccc3cn[nH]c3c2)c1)CN1CCc2ccccc2C1 (centres unmarked) [Compound D58]
101 to 1000 | Cn1cnc2cc(-c3cccc(OCC(O)CN4CCc5ccccc5C4)c3)ccc21 (centres unmarked) [Compound D60]
< 100 | OC(COc1cccc(-c2cccc3cccnc23)c1)CN1CCc2ccccc2C1 (centres unmarked) [Compound D65]
101 to 1000 | CC(=O)c1cccc(-c2cccc(OCC(O)CN3CCc4ccccc4C3)c2)c1 (centres unmarked) [Compound D67]
101 to 1000 | CC1c2ccccc2CCN1CC(O)COc1cccc(-c2ccc3ncn(C)c3c2)c1 (centres unmarked) [Compound D80]
101 to 1000 | CC(C)n1cnc2ccc(-c3cccc(OCC(O)CN4CCc5ccccc5C4)c3)cc21 (centres unmarked) [Compound D81]
101 to 1000 | COc1ccc(Cn2cnc3ccc(-c4cccc(OCC(O)CN5CCc6ccccc6C5)c4)cc32)cc1 (centres unmarked) [Compound D82]
101 to 1000 | OC(COc1cccc(-c2ccc3nc[nH]c3c2)c1)CN1CCc2ccccc2C1 (centres unmarked) [Compound D83]
101 to 1000 | OC(COc1cccc(-c2cccc3c2oc2ccccc23)c1)CN1CCc2ccccc2C1 (centres unmarked) [Compound D86]
101 to 1000 | COc1ccc(-c2cccc(OCC(O)CN3CCc4ccccc4C3)c2)c(C)c1 (centres unmarked) [Compound D90]
101 to 1000 | OC(COc1cccc(-c2ccccc2Cl)c1)CN1CCc2ccccc2C1 (centres unmarked) [Compound D92]
< 100 | OC(COc1cccc(-c2ccc3ncn(C4CCNC4)c3c2)c1)CN1CCc2ccccc2C1 (centres unmarked) [Compound D209]
101 to 1000 | Cn1ncc2c1CN(c1cccc(OCC(O)CN3CCc4ccccc4C3)c1)CC2 (centres unmarked) [Compound D216]
101 to 1000 | Cn1cnc2ccc(-c3cc(NCC(O)CN4CCc5ccccc5C4)ccn3)cc21 (centres unmarked) [Compound D217]
101 to 1000 | O=C(Cn1ccc2cnc(-c3cccc(OCC(O)CN4CCc5ccccc5C4)c3)nc21)N1CCOCC1 (centres unmarked) [Compound D222]
< 100 | OC(COc1cccc(-c2cccc3[nH]cnc23)c1)CN1CCc2ccccc2C1 (centres unmarked) [Compound D223]
< 100 | Cn1ncc2ccc(-c3ccnc(NCC(O)CN4CCc5ccccc5C4)c3)cc21 (centres unmarked) [Compound D226]
101 to 1000 | OC(CNc1cccc(-c2cccc3[nH]cnc23)c1)CN1CCc2ccccc2C1 (centres unmarked) [Compound D235]

IC50 [nM] | Compound
< 100 | Cn1cc2ccc(-c3ccnc(NCC(O)CN4CCc5ccccc5C4)c3)cc2n1 (centres unmarked) [Compound D236]
101 to 1000 | Cn1ccc2ccc(-c3cc(NCC(O)CN4CCc5ccccc5C4)ncn3)cc21 (centres unmarked) [Compound D237]
< 100 | Cn1cnc2ccc(-c3ccnc(NCC(O)CN4CCc5ccccc5C4)c3)nc21 (centres unmarked) [Compound D238]
< 100 | OC(CNc1cc(-c2ccc3ncn(C4CCNC4)c3c2)ccn1)CN1CCc2ccccc2C1 (centres unmarked) [Compound D240]
< 100 | OC(CNc1cc(-c2ccc3ncn(C4CCNCC4)c3c2)ccn1)CN1CCc2ccccc2C1 (centres unmarked) [Compound D241]
101 to 1000 | CN1CCN(C(=O)Cn2ccc3cnc(-c4cccc(OCC(O)CN5CCc6ccccc6C5)c4)nc32)CC1 (centres unmarked) [Compound D244]
< 100 | O=C(Cn1ccc2cnc(-c3ccnc(NCC(O)CN4CCc5ccccc5C4)c3)nc21)N1CCCCC1 (centres unmarked) [Compound D246]
< 100 | CN1CCN(C(=O)Cn2ccc3cnc(-c4ccnc(NCC(O)CN5CCc6ccccc6C5)c4)nc32)CC1 (centres unmarked) [Compound D247]
101 to 1000 | Cn1ncc2cnc(-c3cccc(OCC(O)CN4CCc5ccccc5C4)c3)cc21 (centres unmarked) [Compound D248]
101 to 1000 | O=C(Cn1cnc2ccc(-c3cccc(OCC(O)CN4CCc5ccccc5C4)c3)cc21)N1CCCCC1 (centres unmarked) [Compound D249]
< 100 | OC(COc1cccc(-c2ncc3ccn(C4CCNCC4)c3n2)c1)CN1CCc2ccccc2C1 (centres unmarked) [Compound D253]
< 100 | OC(CNc1cc(-c2ncc3ccn(C4CCNCC4)c3n2)ccn1)CN1CCc2ccccc2C1 (centres unmarked) [Compound D255]
< 100 | O[C@@H](COc1cccc(-c2cccc3cccnc23)c1)CN1CCc2ccccc2C1 [Compound D257]
< 100 | Cn1cc2ccc(-c3cccc(NCC(O)CN4CCc5ccccc5C4)c3)nc2n1 (centres unmarked) [Compound D261]
101 to 1000 | CNC(=O)Cn1cnc2ccc(-c3cccc(OCC(O)CN4CCc5ccccc5C4)c3)cc21 (centres unmarked) [Compound D262]
101 to 1000 | O=C(Cn1cnc2ccc(-c3cccc(OCC(O)CN4CCc5ccccc5C4)c3)cc21)N1CCOCC1 (centres unmarked) [Compound D264]
< 100 | OC(CNc1cc(-c2ccc3ncn(C4COC4)c3c2)ccn1)CN1CCc2ccccc2C1 (centres unmarked) [Compound D265]
< 100 | Cc1ncc2ccc(-c3cccc(OCC(O)CN4CCc5ccccc5C4)c3)cn12 (centres unmarked) [Compound D266]
101 to 1000 | CN1CCN(C(=O)Cn2cnc3ccc(-c4cccc(OCC(O)CN5CCc6ccccc6C5)c4)cc32)CC1 (centres unmarked) [Compound D270]
101 to 1000 | Cn1cnc2cc(-c3cc(NCC(O)CN4CCc5ccccc5C4)n[nH]3)ccc21 (centres unmarked) [Compound D272]
< 100 | CC(=O)N(CC(O)CN1CCc2ccccc2C1)c1cccc(-c2ccc3ncn(C)c3c2)c1 (centres unmarked) [Compound D273]
< 100 | Cn1cnc2ccc(-c3ccnc(NC[C@H](O)CN4CCc5ccccc5C4)c3)cc21 [Compound D275]

Continued, compound first:

Compound | IC50 [nM]
COC(COc1cccc(CNC2CCCC2)c1)CN1CCc2ccccc2C1 (centres unmarked) [Compound D32] | 1000 to 10000
Cn1cnc2ccc(-c3cccc(OCC(O)CN4CCc5ccccc5C4)c3)cc21 (centres unmarked) [Compound D45] | < 100
CC(Oc1cccc(CNC2CCCC2)c1)C(O)CN1CCc2ccccc2C1 (centres unmarked) [Compound D49] | 101 to 1000
CN(CC(O)CN1CCc2ccccc2C1)c1cccc(CNC2CCCC2)c1 (centres unmarked) [Compound D53] | 101 to 1000
OC(COc1cccc(-c2ccc3c(c2)OCO3)c1)CN1CCc2ccccc2C1 (centres unmarked) [Compound D59] | 101 to 1000
OC(COc1cccc(-c2cc(C(F)(F)F)ccc2Cl)c1)CN1CCc2ccccc2C1 (centres unmarked) [Compound D62] | 101 to 1000
CS(=O)(=O)c1ccc(-c2cccc(OCC(O)CN3CCc4ccccc4C3)c2)cc1 (centres unmarked) [Compound D63] | 101 to 1000
OC(COc1cccc(-c2cccc(F)c2F)c1)CN1CCc2ccccc2C1 (centres unmarked) [Compound D68] | 101 to 1000
OCc1cccc(-c2cccc(OCC(O)CN3CCc4ccccc4C3)c2)c1 (centres unmarked) [Compound D72] | 101 to 1000
COc1cccc(-c2cccc(OCC(O)CN3CCc4ccccc4C3)c2)c1 (centres unmarked) [Compound D74] | 101 to 1000
COc1ccc(-c2cccc(OCC(O)CN3CCc4ccccc4C3)c2)cc1 (centres unmarked) [Compound D75] | 101 to 1000
OC(COc1cccc(-c2ccc3nn[nH]c3c2)c1)CN1CCc2ccccc2C1 (centres unmarked) [Compound D84] | 101 to 1000
OC(COc1cccc(-c2ccc3c(c2)OCCO3)c1)CN1CCc2ccccc2C1 (centres unmarked) [Compound D85] | 101 to 1000
COc1ccc(-c2cccc(OCC(O)CN3CCc4ccccc4C3)c2)c(Cl)c1 (centres unmarked) [Compound D88] | 101 to 1000
OC(COc1cccc(-c2cnc3ccccc3c2)c1)CN1CCc2ccccc2C1 (centres unmarked) [Compound D89] | 101 to 1000
OC(COc1cccc(-c2ccc3ncn(C4CNC4)c3c2)c1)CN1CCc2ccccc2C1 (centres unmarked) [Compound D208] | 101 to 1000
Cn1cc2ccc(-c3cccc(OCC(O)CN4CCc5ccccc5C4)c3)nc2n1 (centres unmarked) [Compound D210] | < 100
CN1CC(n2cnc3ccc(-c4cccc(OCC(O)CN5CCc6ccccc6C5)c4)cc32)C1 (centres unmarked) [Compound D218] | < 100

Compound | IC50 [nM]
CN1CCC(n2cnc3ccc(-c4cccc(OCC(O)CN5CCc6ccccc6C5)c4)cc32)C1 (centres unmarked) [Compound D219] | < 100
OC(COc1cccc(-c2ccc3ncn(C4CCNCC4)c3c2)c1)CN1CCc2ccccc2C1 (centres unmarked) [Compound D220] | < 100
CN1CCC(n2cnc3ccc(-c4cccc(OCC(O)CN5CCc6ccccc6C5)c4)cc32)CC1 (centres unmarked) [Compound D221] | < 100
Cn1cc2ccc(-c3cc(NCC(O)CN4CCc5ccccc5C4)ncn3)cc2n1 (centres unmarked) [Compound D224] | 101 to 1000
O=C(Cn1ccc2cnc(-c3ccnc(NCC(O)CN4CCc5ccccc5C4)c3)nc21)N1CCCC1 (centres unmarked) [Compound D233] | < 100
O=C(Cn1ccc2cnc(-c3ccnc(NCC(O)CN4CCc5ccccc5C4)c3)nc21)N1CCOCC1 (centres unmarked) [Compound D234] | < 100
Cn1ccc2cnc(-c3ccnc(NCC(O)CN4CCc5ccccc5C4)c3)nc21 (centres unmarked) [Compound D239] | < 100
CC(=O)N1CCC(n2cnc3ccc(-c4ccnc(NCC(O)CN5CCc6ccccc6C5)c4)cc32)CC1 (centres unmarked) [Compound D242] | 101 to 1000
CC(=O)N1CCC(n2ccc3cnc(-c4cccc(OCC(O)CN5CCc6ccccc6C5)c4)nc32)CC1 (centres unmarked) [Compound D243] | 101 to 1000
CNC(=O)Cn1ccc2cnc(-c3ccnc(NCC(O)CN4CCc5ccccc5C4)c3)nc21 (centres unmarked) [Compound D245] | < 100
CN1CCC(n2cnc3ccc(-c4ccnc(NCC(O)CN5CCc6ccccc6C5)c4)cc32)C1 (centres unmarked) [Compound D250] | < 100
OC(CNc1cc(-c2ccc3ncn(C4CCOCC4)c3c2)ccn1)CN1CCc2ccccc2C1 (centres unmarked) [Compound D251] | < 100
CN1CCC(n2cnc3ccc(-c4ccnc(NCC(O)CN5CCc6ccccc6C5)c4)cc32)CC1 (centres unmarked) [Compound D252] | < 100
OC(CNc1cc(-c2ncc3ccn(C4CNC4)c3n2)ccn1)CN1CCc2ccccc2C1 (centres unmarked) [Compound D254] | < 100
CC(=O)N1CCC(n2ccc3cnc(-c4ccnc(NCC(O)CN5CCc6ccccc6C5)c4)nc32)CC1 (centres unmarked) [Compound D256] | < 100
O=C(Cn1cnc2ccc(-c3cccc(OCC(O)CN4CCc5ccccc5C4)c3)cc21)N1CCCC1 (centres unmarked) [Compound D263] | 101 to 1000
OC(COc1cccc(-c2ccc3ncn(C4COC4)c3c2)c1)CN1CCc2ccccc2C1 (centres unmarked) [Compound D269] | < 100
Cn1cnc2ccc(-c3cc(NCC(O)CN4CCc5ccccc5C4)n[nH]3)cc21 (centres unmarked) [Compound D271] | 101 to 1000
